Test results: patent US20230066946A1, “1,5-DIPHENYLPYRAZOLYL-3-OXYALKYL ACIDS AND 1-PHENYL-5-THIENYLPYRAZOLYL-3-OXYALKYL ACIDS AND THE USE THEREOF FOR CONTROL OF UNWANTED PLANT GROWTH” (Bayer Aktiengesellschaft, priority 2019, published 2023)

Legend:
SETVI [1] = experiment: Pre-emergence herbicidal action against SETVI; assay type: in vivo, Setaria viridis; details: 1280 g/ha, scored visually after about 3 weeks vs untreated controls
Summary of the method: (§1)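 Greenhouse pot test on sown, soil-covered weed seeds; spray of WP or EC formulation at 1280 or 320 g/ha onto covering soil. Effect rated visually after about 3 weeks (0% = like control, 100% = dead).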

PHBPU = experiment: Post-emergence herbicidal action against PHBPU; assay type: in vivo, Pharbitis purpurea; details: 320 g/ha, visual rating about 3 weeks after treatment
Summary of the method: (§2)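 Each pot held twin-sown weeds in sandy loam, treated post-emergence 2 to 3 weeks after sowing at the one-leaf stage. Compound was given as a foliar spray at 1280 or 320 g/ha in 600 litres per hectare water with 0.5% additive. Visual scoring against untreated controls followed after about 3 weeks.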

POLCO [2] = experiment: Pre-emergence herbicidal action against POLCO; assay type: in vivo, Polygonum convolvulus; details: 320 g/ha, scored visually after about 3 weeks vs untreated controls
Summary of the method: as §1

AMARE [3] = experiment: Post-emergence herbicidal action against AMARE; assay type: in vivo, Amaranthus retroflexus; details: visual rating about 3 weeks after treatment
Summary of the method: as §2

VERPE [4] = experiment: Post-emergence herbicidal action against VERPE; assay type: in vivo, Veronica persica; details: 320 g/ha, visual rating about 3 weeks after treatment
Summary of the method: as §2

MATIN [5] = experiment: Post-emergence herbicidal action against MATIN; assay type: in vivo, Matricaria inodora; details: visual rating about 3 weeks after treatment
Summary of the method: as §2

ECHCG [6] = experiment: Pre-emergence herbicidal action against ECHCG; assay type: in vivo, Echinochloa crus-galli; details: scored visually after about 3 weeks vs untreated controls, 100% = plants have died, 0% = like control plants
Summary of the method: as §1

STEME [7] = experiment: Post-emergence herbicidal action against STEME; assay type: in vivo, Stellaria media; details: visual rating about 3 weeks after treatment
Summary of the method: as §2

ECHCG [8] = experiment: Post-emergence herbicidal action against ECHCG; assay type: in vivo, Echinochloa crus-galli; details: 1280 g/ha, post-emergence at one-leaf stage, rated visually after about 3 weeks vs untreated controls
Summary of the method: as §2

SETVI [9] = experiment: Post-emergence herbicidal action against SETVI; assay type: in vivo, Setaria viridis; details: 1280 g/ha, post-emergence at one-leaf stage, rated visually after about 3 weeks vs untreated controls
Summary of the method: as §2

STEME [10] = experiment: Pre-emergence herbicidal action against STEME; assay type: in vivo, Stellaria media; details: scored visually after about 3 weeks vs untreated controls
Summary of the method: as §1

harmful plants [11] = experiment: Post-emergence herbicidal action, summary of Tables 5.1-5.16; assay type: in vivo; details: result in words
Description: Seeds of mono- and dicotyledonous weed plants are placed in plastic pots in sandy loam soil (twin sowing with one species each of mono- or dicotyledonous weed plants per pot), covered with soil and cultivated in a greenhouse under controlled growth conditions. 2 to 3 weeks after sowing, the test plants are treated at the one-leaf stage. The compounds of the invention, formulated in the form of wettable powders (WP) or as emulsion concentrates (EC), are applied to the green parts of the plants as aqueous suspension or emulsion with addition of 0.5% additive at a water application rate equivalent to 600 litres per hectare. After the test plants have been kept in the greenhouse under optimum growth conditions for about 3 weeks, the activity of the preparations is rated visually in comparison to untreated controls. For example, 100% activity=the plants have died, 0% activity=like control plants. Tables 5.1-5.16 below show the effects of selected compounds of the general formula (I) according to Tables 1 to 3 on various harmful plants at an application rate corresponding to 1280 or 320 g/ha, which have been obtained by the aforementioned experimental method. As the results from Tables 5.1-5.16 show, compounds of the invention have good herbicidal post-emergence efficacy against a broad spectrum of weed grasses and weeds. […] For example, compounds Nos. I-002, I-006, I-022, I-056 and I-072 applied by the post-emergence method have very good herbicidal action (80% to 100% herbicidal action) against harmful plants such as Alopecurus myosuroides, Amaranthus retroflexus, Matricaria inodora, Setaria viridis, Pharbitis purpurea and Stellaria media at an application rate of 1.28 kg of active substance or less per hectare.

VERPE [12] = experiment: Pre-emergence herbicidal action against VERPE; assay type: in vivo, Veronica persica; details: 320 g/ha, scored visually after about 3 weeks vs untreated controls
Summary of the method: as §1

VIOTR = experiment: Post-emergence herbicidal action against VIOTR; assay type: in vivo, Viola tricolor; details: 320 g/ha, visual rating about 3 weeks after treatment
Summary of the method: as §2

AMARE [13] = experiment: Pre-emergence herbicidal action against AMARE; assay type: in vivo, Amaranthus retroflexus; details: scored visually after about 3 weeks vs untreated controls; for Pre-emergence action at 320 g/ha against AMARE in %: 100% = plants have died, 0% = like control plants; for Pre-emergence action against AMARE in %: 1280 g/ha
Summary of the method: as §1

POLCO [14] = experiment: Post-emergence herbicidal action against POLCO; assay type: in vivo, Polygonum convolvulus; details: 320 g/ha, visual rating about 3 weeks after treatment
Summary of the method: as §2

MATIN [15] = experiment: Pre-emergence herbicidal action against MATIN; assay type: in vivo, Matricaria inodora; details: 1280 g/ha, scored visually after about 3 weeks vs untreated controls
Text: (§3) Seeds of mono- and dicotyledonous weed plants are placed in plastic pots in sandy loam soil (doubly sown with one species each of mono- or dicotyledonous weed plants per pot) and covered with soil. The compounds of the invention, formulated in the form of wettable powders (WP) or as emulsion concentrates (EC), are then applied onto the surface of the covering soil as aqueous suspension or emulsion with addition of 0.5% additive at a water application rate equivalent to 600 litres per hectare. After the treatment, the pots are placed in a greenhouse and kept under good growth conditions for the trial plants. After about 3 weeks, the effect of the preparations is scored visually in comparison with untreated controls as percentages. For example, 100% activity=the plants have died, 0% activity=like control plants. [table] Tables 4.1-4.15 below show the effects of selected compounds of the general formula (I) according to Tables 1 to 3 on various harmful plants at an application rate corresponding to 1280 or 320 g/ha, which have been obtained by the aforementioned experimental method.

ALOMY = experiment: Pre-emergence herbicidal action against ALOMY; assay type: in vivo, Alopecurus myosuroides; details: scored visually after about 3 weeks vs untreated controls, 100% = plants have died, 0% = like control plants
Text: as §3

harmful plants [16] = experiment: Pre-emergence herbicidal action, summary of Tables 4.1-4.15; assay type: in vivo; details: result in words
Text: as §3, with “plants.” for “plants. [table] Tables 4.1-4.15 below show the effects of selected compounds of the general formula (I) according to Tables 1 to 3 on various harmful plants at an application rate corresponding to 1280 or 320 g/ha, which have been obtained by the aforementioned experimental method.”
Tables 4.1-4.15 below show the effects of selected compounds of the general formula (I) according to Tables 1 to 3 on various harmful plants at an application rate corresponding to 1280 or 320 g/ha, which have been obtained by the aforementioned experimental method.
For example, compounds no. I-008, I-056, I-057, I-061, I-067, I-070 and I-072 applied by the pre-emergence method have very good action (80% to 100% herbicidal action) against harmful plants such as Alopecurus myosuroides, Amaranthus retroflexus, Matricaria inodora, Polygonum convolvulus, Setaria viridis and Stellaria media at an application rate of 1.28 kg of active substance or less per hectare.

Row | SMILES | Pre-emergence action against SETVI in % (SETVI [1]) [%] | Post-emergence action against PHBPU in % (PHBPU) [%] | Pre-emergence action against POLCO in % (POLCO [2]) [%] | Post-emergence action against AMARE in % (AMARE [3]; 320 g/ha) [%] | Post-emergence action against AMARE in % (AMARE [3]; 1280 g/ha) [%] | Post-emergence action against VERPE in % (VERPE [4]) [%] | Post-emergence action against MATIN in % (MATIN [5]; 320 g/ha) [%] | Post-emergence action against MATIN in % (MATIN [5]; 1280 g/ha) [%] | Pre-emergence action at 1280 g/ha against ECHCG in % (ECHCG [6]) [%] | Post-emergence action against STEME in % (STEME [7]; 320 g/ha) [%] | Post-emergence action against STEME in % (STEME [7]; 1280 g/ha) [%] | Post-emergence action against SETVI in % (SETVI [9]) [%] | Pre-emergence action against STEME in % (STEME [10]; 1280 g/ha) [%] | herbicidal efficacy against harmful plants when applied post-emergence (harmful plants [11]) | Pre-emergence action against VERPE in % (VERPE [12]) [%] | Pre-emergence action at 320 g/ha against AMARE in % (AMARE [13]) [%] | Pre-emergence action against AMARE in % (AMARE [13]) [%] | Post-emergence action against POLCO in % (POLCO [14]) [%] | Pre-emergence action at 1280 g/ha against ALOMY in % (ALOMY) [%] | further results
1 | COC(=O)COc1nn(-c2ccccc2F)c(-c2ccccc2)c1Br [I-054] | 90 | 100 | 100 | 90 | 100 | 80 | 90 | 100 | 90 | 90 | 100 | 100 | 100 | very good herbicidal efficacy | 100 | 100 | 100 | 80 | – | Post-emergence action against ECHCG in % (ECHCG [8]): 90%; Pre-emergence action against STEME in % (STEME [10]; 320 g/ha): 100%; Post-emergence action against VIOTR in % (VIOTR): 90%
2 | COC(=O)COc1nn(-c2ccccc2)c(-c2ccc(F)cc2)c1C#N [I-014] | – | 80 | – | 80 | – | – | – | – | – | 80 | – | – | – | very good herbicidal efficacy | 100 | 100 | – | 80 | – | –
3 | COC(=O)COc1nn(-c2ccccc2)c(-c2ccc(F)cc2)c1Cl [I-008] | 90 | – | 80 | 80 | 80 | 90 | 90 | 90 | – | 90 | 90 | – | 100 | – | 90 | 100 | 100 | 80 | 100 | Pre-emergence action against MATIN in % (MATIN [15]): 90%; herbicidal efficacy against harmful plants in the case of pre-emergence treatment (harmful plants [16]): good herbicidal efficacy
4 | COC(=O)CNC(=O)C(C)Oc1nn(-c2ccccc2)c(-c2ccc(F)cc2)c1Cl (centres unmarked) [III-058] | 90 | – | – | – | 90 | – | – | 100 | 90 | – | 100 | 100 | 100 | very good herbicidal efficacy | – | – | 100 | – | – | –
5 | C1COCCN1.O=C(O)COc1nn(-c2cccc(F)c2)c(-c2ccccc2)c1I [II-04] | – | – | – | – | – | – | – | – | 100 | – | 100 | – | 100 | very good herbicidal efficacy | – | – | 100 | – | – | –
6 | COC(=O)COc1nn(-c2ccc(Cl)cc2)c(-c2ccc(F)cc2)c1Cl [I-007] | – | – | – | – | 80 | 90 | – | – | – | – | – | – | 90 | – | – | 80 | 100 | – | 80 | –
